Columns and labels:
[1] = tested on: patients with Major Depressive Disorder; assay: Six-week double-blind placebo-controlled Phase 2 study, efficacy; assay type: in vivo, human
Description: Subjects were identified who were between the ages of 18-65 (inclusive), and met criteria for Major Depressive Disorder in accordance with the Diagnostic and Statistical manual of Mental Disorders-IV-TR and confirmed by the MINI International Neuropsychiatric Interview.
Subjects were required to refrain from taking antidepressants, anticonvulsants including gabapentin and pregabalin, neuroleptics, MAO inhibitors, barbiturates, benzodiazepines, stimulants, antipsychotics, lithium, anxiolytics and beta blockers starting two weeks prior to the study and continuing until after the follow-up visit.
(§1) • Visits and evaluations were performed according to the following schedule of events: • Visit 1: Screening Visit: • The following was obtained/performed at the Screening Visit (Visit 1): • Written informed consent • Medical history including: • Relevant demographic information • Detailed medical and surgical history, including review of systems • Whenever possible, the patient's medical history was confirmed by medical records. • Prior medication: Medication taken by the patients 30 days prior to the Screening Visit was recorded. • AE assessment • Height (cm) • Weight (kg); BMI was determined and was ≤35 for the patient to be randomized • Complete physical examination • MINI diagnostic exam • Vital signs (respiratory rate, oral temperature (° C.), blood pressure, pulse). […] The capsules were taken for 7 days prior to the Baseline/Day 1 Visit (Visit 3). The first dose of placebo was taken at the clinic with 240 mL of water after a light meal. • Patients were provided with a diary to record the date, time and dosage of each dose.
(§2) Efficacy was determined by measuring the change from baseline in the Montgomery-Åsberg Depression Rating Scale (MADRS), the HAMD-17, the Clinical Global Impression Global Improvement Scale (CGI-I), the Clinical Global Impression-Severity scale (CGI-S) and the Derogatis Interview for Sexual Functioning Self-Report (DISF-SR). […] Comparisons between treatment groups based on MADRS (the primary efficacy parameter), HAMD-17, Anhedonia, DISF-SR, CGI-I and CGI-S scores were analyzed using a mixed-repeated measures (MMRM) analysis model including factors for Subject, Visit, Treatment Arm and Baseline value as a covariate. Adjusted least-squares means from these models are presented. Comparisons between groups were made at each post-baseline visit using model-based contrasts and adjusted degrees of freedom. For these analyses no explicit data imputations were made prior to the analysis. Response and remission categorical data were analyzed using chi-square tests. Inferential analyses of safety data were conducted with ANOVA models or chi-square tests. Two-tail alpha was set to 0.05. All analyses were conducted using SAS version 9.2.

[2] = Six-week double-blind placebo-controlled Phase 2 study, safety and tolerability; assay type: in vivo, human
Experimental: Subjects were evaluated for safety parameters prior to and throughout the trial by a variety of measures including electrocardiogram, physical examination, vital signs and body weight, and clinical laboratory testing including a lipid panel, CBC with differential and urinalysis, Samples were drawn to assess total bilirubin, alkaline phosphatase, ALT (SGPT), AST (SGOT), blood urea nitrogen (BUN), creatinine, glucose, uric acid, calcium, phosphorus, total protein, albumin, total cholesterol, LDL, HDL, triglycerides, sodium, potassium, bicarbonate, chloride, GGT and creatine kinase, Hepatitis B, C and HIV serologies, TSH, drug screen and serum pregnancy test for females.
as §1, §2

symptoms of depression = settings: eight weeks of treatment; Sepracor Press Release, Jul. 1, 2009; cited from earlier work

Structure (SMILES) | Response rate, MADRS ([1]; Visit 8, LOCF, Completers, 100 mg, 50% reduction or more of baseline total score, 8/20) | Response rate, HAMD-17 ([1]; Visit 8, LOCF, Completers, 100 mg, 50% reduction or more of baseline total score, 11/20) | Remission rate, HAMD-17 ([1]; Visit 8, LOCF, Completers, 100 mg, HAMD-17 ≤ 7, 4/20) | Remission rate, MADRS ([1]; Visit 8, LOCF, Completers, 100 mg, MADRS ≤ 12, 6/20) | CGI-S LS mean, Difference placebo vs drug ([1]; Visit 8, MMRM, MITT, 95% CI (−0.21, 0.66), P = 0.306) | overall statistical effect size (Cohen's d), MADRS total score vs placebo ([1]; Week 6, MMRM) | percentage of patients who reported an adverse treatment event ([2]; 10 patients, placebo 11 or 39.28%) | Treatment-Emergent Adverse Events: Abdominal Pain (NOS) (% of Patients) ([2]; n = 33) | Treatment-Emergent Adverse Events: Anxiety (% of Patients) ([2]; n = 33) | Treatment-Emergent Adverse Events: Diarrhea NOS (% of Patients) ([2]; n = 33) | Treatment-Emergent Adverse Events: Emotional Disturbance NOS (% of Patients) ([2]; n = 33) | Treatment-Emergent Adverse Events: Headache NOS (% of Patients) ([2]; n = 33) | Treatment-Emergent Adverse Events: Irritability (% of Patients) ([2]; n = 33) | Treatment-Emergent Adverse Events: Nausea (% of Patients) ([2]; n = 33) | Treatment-Emergent Adverse Events: Rash NOS (% of Patients) ([2]; n = 33) | Treatment-Emergent Adverse Events: Upper Respiratory Tract Infection NOS (% of Patients) ([2]; n = 33) | patients who discontinued the study early due to AEs ([2]; same number in the placebo group) | serious AEs ([2]; six-week study) | primary efficacy endpoint compared to placebo (reduction in symptoms of depression, 17-item HAM-D) (symptoms of depression)
Clc1ccc([C@]23CNC[C@H]2C3)cc1Cl [(+)-1-(3,4-dichlorophenyl)-3-azabicyclo[3.1.0]hexane] | 40.00% | 55.00% | 20.00% | 30.00% | 0.22 | −0.63 | 30.30% | 2 (6.06%) | 2 (6.06%) | 2 (6.06%) | 2 (6.06%) | 3 (9.09%) | 2 (6.06%) | 2 (6.06%) | 2 (6.06%) | 2 (6.06%) | Two | no serious AEs were reported | 
N[C@@H]1CC[C@@H](c2ccc(Cl)c(Cl)c2)c2ccccc21 [SEP-225289] |  |  |  |  |  |  |  |  |  |  |  |  |  |  |  |  |  |  | did not meet the primary efficacy endpoint compared to placebo

Reference: patent publication US20190358199A1 (priority 2010, published 2019)
